Experimental findings from US10858365B2, “Triazolo-pyrimidine compounds and uses thereof” (Dizal (Jiangsu) Pharmaceutical Co., Ltd., priority 2018, dated 2020) are described below.

Common to all, as to assay type: cell-based
One experiment deals with hA2b (Homo sapiens (Human), UniProt P29275). In words: cAMP inhibition assay in hA2b/CHO cells. Conditions: adenosine stimulation, read-out: cAMP & FLIPR IC50 (nM) hA2b. The procedure:
(§1) hA2a/CHO, hA2b/CHO and mA2a/CHO (Genscript) were plated at 5×10^3 cells/well into 384-well polystyrene plates at the day of experiment. Compounds were pre-incubated with cells for 30 min at 37° C., 5% CO2. Then […] adenosine was added to the cells and incubated for 30 min at 37° C., 5% CO2. Detection reagent (CISBIO) was added and the plates were incubated for 60 min at room temperature. The signal was captured by Envision.

Another experiment addresses mA2a (Mus musculus (Mouse), UniProt Q60613). In words: cAMP inhibition assay in mA2a/CHO cells. The following applies: adenosine stimulation, read-out: cAMP & FLIPR IC50 (nM) mA2a. The procedure: as §1
Another experiment addresses hA1 (Homo sapiens (Human), UniProt P30542). The experiment in a line: FLIPR inhibition assay in hADORA1/CHO (hA1 expressing) cells. The following applies: hADORA1/CHO cells, FLIPR calcium, adenosine stimulation; read-out: cAMP & FLIPR IC50 (nM) hA1. In outline: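 CHO cells expressing human A1 were plated at 1×10^4 cells/well the day before, then loaded with FLIPR Calcium 5 dye for 60 min at 37 °C, 5% CO2. Compounds were added at several concentrations for 400 s before stimulation with […] adenosine. The calcium signal was recorded by FLIPR.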

For another experiment, the target named is hA2a (Homo sapiens (Human), UniProt P29274). In words: cAMP inhibition assay in hA2a/CHO cells. The following applies: adenosine stimulation, read-out: cAMP & FLIPR IC50 (nM) hA2a. In short, it runs like this:
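CHO cells expressing human A2a, human A2b or mouse A2a, 5×10^3 cells/well, pre-incubated with compound 30 min at 37 °C, then stimulated with […] adenosine 30 min at 37 °C. cAMP read after 60 min room-temperature incubation with detection reagent.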

Sequence of hA2b (P29275 whole entry): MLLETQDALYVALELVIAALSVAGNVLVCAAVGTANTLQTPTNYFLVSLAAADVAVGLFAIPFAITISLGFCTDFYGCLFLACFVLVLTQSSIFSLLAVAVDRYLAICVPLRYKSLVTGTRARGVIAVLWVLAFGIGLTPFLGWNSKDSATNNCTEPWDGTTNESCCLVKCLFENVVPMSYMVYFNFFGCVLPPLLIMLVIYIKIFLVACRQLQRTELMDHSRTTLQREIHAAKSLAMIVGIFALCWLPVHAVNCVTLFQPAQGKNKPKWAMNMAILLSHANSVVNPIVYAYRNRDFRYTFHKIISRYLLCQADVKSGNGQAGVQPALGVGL
Sequence of mA2a (Q60613 whole entry): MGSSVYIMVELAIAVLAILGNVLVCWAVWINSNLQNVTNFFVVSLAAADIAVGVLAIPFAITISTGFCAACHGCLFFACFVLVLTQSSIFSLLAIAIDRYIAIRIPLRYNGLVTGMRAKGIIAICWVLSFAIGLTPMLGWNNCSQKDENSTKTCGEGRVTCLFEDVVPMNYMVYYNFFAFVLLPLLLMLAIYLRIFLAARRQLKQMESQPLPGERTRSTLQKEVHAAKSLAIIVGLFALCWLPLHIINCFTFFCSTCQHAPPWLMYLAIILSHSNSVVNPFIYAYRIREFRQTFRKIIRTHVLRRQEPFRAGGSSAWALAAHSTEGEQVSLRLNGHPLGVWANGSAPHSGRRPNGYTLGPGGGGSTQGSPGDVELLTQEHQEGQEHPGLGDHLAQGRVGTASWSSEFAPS
Sequence of hA1 (P30542 whole entry): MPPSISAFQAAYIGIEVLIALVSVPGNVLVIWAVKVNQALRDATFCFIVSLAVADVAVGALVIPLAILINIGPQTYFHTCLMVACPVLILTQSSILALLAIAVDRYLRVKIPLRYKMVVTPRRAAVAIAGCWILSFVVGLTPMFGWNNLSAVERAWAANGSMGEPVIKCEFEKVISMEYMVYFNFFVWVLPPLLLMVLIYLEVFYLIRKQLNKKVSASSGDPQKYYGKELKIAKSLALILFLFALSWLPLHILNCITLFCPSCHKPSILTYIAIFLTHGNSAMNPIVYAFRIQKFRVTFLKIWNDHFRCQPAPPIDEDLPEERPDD
Sequence of hA2a (P29274 whole entry): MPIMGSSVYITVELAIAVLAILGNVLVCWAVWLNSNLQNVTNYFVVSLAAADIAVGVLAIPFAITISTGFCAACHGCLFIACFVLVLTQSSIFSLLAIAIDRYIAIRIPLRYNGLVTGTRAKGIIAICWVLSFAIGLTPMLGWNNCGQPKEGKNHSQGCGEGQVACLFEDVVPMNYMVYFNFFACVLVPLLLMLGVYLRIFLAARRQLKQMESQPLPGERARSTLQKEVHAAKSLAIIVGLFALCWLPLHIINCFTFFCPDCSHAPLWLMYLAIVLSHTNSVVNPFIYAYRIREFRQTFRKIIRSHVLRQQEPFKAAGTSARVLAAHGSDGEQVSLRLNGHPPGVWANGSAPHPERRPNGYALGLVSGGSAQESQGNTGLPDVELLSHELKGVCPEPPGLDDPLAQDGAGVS

With `Cc1cc(-c2c(-c3ncco3)nc(N)n3nc(Cc4ncccc4F)nc23)cc(Cl)n1` [Example 82, 8-(2-chloro-6-methylpyridin-4-yI)-2-((3-fluoropyridin-2-yl)methyl)-7-(oxazol-2-yl)-[l,2,4]triazolo [1,5-c]pyrimidin-5-amine], the IC50 at hA2b turned out to be 2910 nM; at mA2a, 63 nM; on hA1 it was 2640 nM; on hA2a it was 25 nM.

In the case of `Cc1cc(-c2c(-c3ncco3)nc(N)n3nc(Cc4c(F)cccc4F)nc23)cc(C#N)n1` [Example 83, 4-(5-amino-2-(2,6-difluorobenzyl)-7-(oxazol-2-yl)-[1,2,4]triazolo[1,5-c]pyrimidin-8-yl)-6-methylpicolinonitrile], the IC50 on hA2b came out at 10000 nM; on mA2a, 76 nM; on hA1, 923 nM; on hA2a, 18 nM.

In the case of `Cc1cc(-c2c(-c3ncco3)nc(N)n3nc(Cc4c(F)cccc4F)nc23)cc(C2CC2)n1` [Example 84, 8-(2-cyclopropyl-6-methylpyridin-4-yl)-2-(2,6-difluorobenzyl)-7-(oxazol-2-yl)-[1,2,4]triazolo[1,5-c]pyrimidin-5-amine], the IC50 came out at 10000 nM on hA2b, 428 nM at mA2a, 2720 nM at hA1 and 60 nM on hA2a.

In the case of `Cc1cc(-c2c(-c3ncco3)nc(N)n3nc(Cc4ncccc4F)nc23)cc(OC(F)F)n1` [Example 87], the IC50 at hA2b was found to be 5800 nM; on mA2a it was 90 nM; on hA1, 4050 nM; on hA2a it was 27 nM.

With `Nc1nc(-c2ccc(F)cc2)c(-c2ccc3ncsc3c2)c2nc(Cc3ncccc3F)nn12` [Example 88, 8-(benzo[d]thiazol-6-yl)-7-(4-fluorophenyl)-2-((3-fluoropyridin-2-yl)methyl)-[1,2,4]triazolo[1,5-c]pyrmidin-5-amine], the IC50 was 47 nM at hA2b, 2.6 nM on mA2a, 110 nM at hA1 and 0.7 nM on hA2a.

In the case of `Nc1nc(-c2ccc(F)cc2)c(-c2ccc3ncccc3c2)c2nc(Cc3ncccc3F)nn12` [Example 89, 7-(4-fluorophenyl)-2-[(3-fluoropyridin-2-yl)methyl]-8-(quinolin-6-yl)-[1,2,4]triazolo[1,5-c]pyrimidin-5-amine], the IC50 amounted to 82 nM on hA2b, 1.3 nM at mA2a, 132 nM on hA1 and 0.4 nM on hA2a.

Take `Cn1cnc2ccc(-c3c(-c4ncco4)nc(N)n4nc(Cc5ncccc5F)nc34)cc21` [Example 90, 2-((3-fluoropyridin-2-yl)methyl)-8-(1-methyl-1H-benzo[d]imidazol-6-yl)-7-(oxazol-2-yl)-[1,2,4] triazolo[1,5-c]pyrimidin-5-amine]: the IC50 was 48 nM at hA2b, 3.5 nM at mA2a, 72 nM on hA1 and 1.8 nM on hA2a.

With `Cn1cnc2ccc(-c3c(-c4ncco4)nc(N)n4nc(Cc5c(F)cccc5F)nc34)cc21` [Example 91, 2-(2,6-difluorobenzyl)-8-(1-methyl-1H-benzo[d]imidazol-6-yl)-7-(oxazol-2-yl)-[1,2,4]triazolo[1,5-c]pyrimidin-5-amine], the IC50 amounted to 102 nM at hA2b, 5.1 nM at mA2a, 206 nM at hA1 and 2.6 nM on hA2a.

Consider `Cn1cc(-c2c(-c3ccccn3)nc(N)n3nc(Cc4c(F)cccc4F)nc23)ccc1=O` [Example 92, 5-[5-amino-2-[(2,6-difluorophenyl)methyl]-7-(pyridin-2-yl)-[1,2,4]triazolo[1,5-c]pyrimidin-8-yl]-1-methyl-1,2-dihydropyridin-2-one], for which the IC50 on hA2b is 680 nM; on mA2a, 11 nM; at hA1, 13 nM; at hA2a, 8 nM.

For orientation: IC50 means the point on the concentration scale where inhibition reaches its midpoint.
